From patent publication EP4603105A1, “PHARMACEUTICAL COMPOSITION CONTAINING CYCLIC COMPOUND HAVING SELECTIVE KRAS INHIBITORY EFFECT AGAINST HRAS AND NRAS” (CHUGAI SEIYAKU KABUSHIKI KAISHA, priority 2022, dated 2024)

Assays:
[1] = test system: human lung cancer strain NCI-H441; assay type: cell-based
Summary of the method: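 Signal came from […] measured per well once the reagent was added. Beforehand, cells were cultured at 37°C and 5% carbon dioxide on a compound series serially diluted in dimethyl sulfoxide.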

HRAS wild-type protein = HRAS wild-type protein (Homo sapiens, UniProt P01112); assay: Binding to HRAS by surface plasmon resonance (SPR), KD and KD ratio to KRAS
Sequence of HRAS wild-type protein (P01112 whole entry): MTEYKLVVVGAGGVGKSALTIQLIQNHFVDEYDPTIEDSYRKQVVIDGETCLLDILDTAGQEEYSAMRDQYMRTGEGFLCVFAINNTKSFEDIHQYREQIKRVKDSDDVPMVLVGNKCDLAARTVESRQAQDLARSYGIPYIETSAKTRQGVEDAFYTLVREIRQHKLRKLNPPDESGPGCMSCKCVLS
Summary of the method: (§1)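 Measured at 30°C: SPR with GDP-loaded, E. coli-expressed biotin-Avi RAS captured (~100–300 RU), ascending 75 s compound injections, HBS pH 7.4 with GDP, MgCl2, 4% DMSO. KD from 1:1 fit.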

[2] = molecular target: GDP-bound NRAS wild-type protein (Homo sapiens, UniProt P01111); assay: Binding to NRAS by surface plasmon resonance (SPR), KD and KD ratio to KRAS
Sequence of GDP-bound NRAS wild-type protein (P01111 whole entry): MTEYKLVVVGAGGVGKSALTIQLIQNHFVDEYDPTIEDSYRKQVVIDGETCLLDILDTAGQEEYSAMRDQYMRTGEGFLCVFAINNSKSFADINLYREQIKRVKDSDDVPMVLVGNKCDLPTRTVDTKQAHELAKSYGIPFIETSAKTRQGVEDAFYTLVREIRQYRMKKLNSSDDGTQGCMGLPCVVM
Summary of the method: as §1

[3] = ratio of the KD value with respect to HRAS wild-type protein to the KD value with respect to KRAS
[4] = ratio of the KD value with respect to GDP-bound NRAS wild-type protein to the KD value with respect to KRAS
[5] = ratio of KD for HRAS wild-type protein to KD for KRAS
[6] = ratio of KD for GDP-bound NRAS wild-type protein to KD for KRAS

SMILES	IC50 [1] [nM]	HRAS /KRAS (HRAS wild-type protein; [3])	NRAS /KRAS [2, 4]	HRAS /KRAS (HRAS wild-type protein; [5])	NRAS /KRAS [2, 6]	HRAS /KRAS (HRAS wild-type protein; ratio of KD value for HRAS wild-type protein to KD value for KRAS (SPR))	NRAS /KRAS ([2]; ratio of KD value for GDP-bound NRAS wild-type protein to KD value for KRAS (SPR))
CCC[C@H]1C(=O)N[C@@H](C2CCCCC2)C(=O)N(C)CC(=O)N(C)[C@H]2C/C=C\CCN(C2=O)[C@@H](Cc2ccc(C(F)(F)F)cc2)C(=O)N(C)CC(=O)N[C@@H](CCc2ccc(C(F)(F)F)c(Cl)c2)C(=O)N2C[C@H](OCC)C[C@H]2C(=O)NC2(CC(C)(C)C2)C(=O)N(C)[C@@H](CC(C)C)C(=O)N(C)[C@H](C(=O)N(C)C)CC(=O)N1C [PP3017]	46.3			A (a compound having 10 or more and less than 20 is denoted as A)	AA (a compound having 20 or more is denoted as AA)		
CCO[C@@H]1C[C@H]2C(=O)N(C)C3(CCCC3)C(=O)N(C)[C@@H](C3CCCC3)C(=O)N(C)[C@H](C(=O)N(C)C)CC(=O)N(C)[C@@H](C3CC3)C(=O)N[C@@H]([C@@H](C)CC)C(=O)N(C)CC(=O)N(C)[C@H]3C/C=C\CCN(C3=O)[C@@H](Cc3ccc(C)cc3)C(=O)N(C)CC(=O)N[C@@H](CCc3cc(F)c(C(F)(F)F)c(F)c3)C(=O)N2C1 [PP1808]	8.8					B (a compound having 3 or more and less than 10 is denoted as B)	A (a compound having 10 or more and less than 20 is denoted as A)
CCO[C@@H]1C[C@H]2C(=O)NC3(CCC3)C(=O)N(C)[C@@H](C3CCCC3)C(=O)N(CCC3CCCC3)[C@H](C(=O)N(C)C)CC(=O)N(C)[C@@H](CC)C(=O)N[C@@H]([C@@H](C)CC)C(=O)N(C)CC(=O)N(C)[C@H]3CCCCCN(C3=O)[C@@H](Cc3ccc(C(F)(F)F)cc3)C(=O)N(C)CC(=O)N[C@@H](CCc3cc(F)c(C(F)(F)F)c(F)c3)C(=O)N2C1 [PP0636]	729	A (a compound having 10 or more and less than 20 is denoted as A)	A (a compound having 10 or more and less than 20 is denoted as A)				
CCO[C@@H]1C[C@H]2C(=O)NC3(CCC3)C(=O)N(C)[C@@H](C3CCCC3)C(=O)N(CC)[C@H](C(=O)N3CCOCC3)CC(=O)N(C)[C@@H](Cc3ccccc3)C(=O)N[C@@H]([C@@H](C)CC)C(=O)N(C)CC(=O)N(C)[C@H]3CCCCCN(C3=O)[C@@H](Cc3ccc(C(F)(F)F)cc3)C(=O)N(C)CC(=O)N[C@@H](CCc3cc(F)c(C(F)(F)F)c(F)c3)C(=O)N2C1 [PP0950]	958			B (a compound having 3 or more and less than 10 is denoted as B)	A (a compound having 10 or more and less than 20 is denoted as A)		

The next compounds have a lower IC50 [1] than those just listed; values first:

IC50 [1] [nM]	SMILES	HRAS /KRAS (HRAS wild-type protein; [3])	NRAS /KRAS [2, 4]	HRAS /KRAS (HRAS wild-type protein; [5])	NRAS /KRAS [2, 6]	HRAS /KRAS (HRAS wild-type protein; ratio of KD value for HRAS wild-type protein to KD value for KRAS (SPR))	NRAS /KRAS ([2]; ratio of KD value for GDP-bound NRAS wild-type protein to KD value for KRAS (SPR))
7.4	CCC[C@H]1C(=O)N[C@@H]([C@@H](C)CC)C(=O)N(C2CC2)CC(=O)N(C)[C@H]2C/C=C\CCN(C2=O)[C@@H](Cc2ccc(C(F)(F)F)cc2)C(=O)N(C)CC(=O)N[C@@H](CCc2ccc(C(F)(F)F)c(OC)c2)C(=O)N2C[C@H](OCC)C[C@H]2C(=O)N(C)C2(CCC2)C(=O)N(C)[C@@H](C(CC)CC)C(=O)N(C)[C@H](C(=O)N(C)C)CC(=O)N1C [PP2313]	A (a compound having 10 or more and less than 20 is denoted as A)	AA (a compound having 20 or more is denoted as AA)				
6.2	CC[C@H](C)[C@@H]1NC(=O)[C@H](C2CCC2)N(C)C(=O)C[C@@H](C(=O)N(C)CC)N(C)C(=O)[C@H](C2CCCC2)N(C)C(=O)C2(CCC2)NC(=O)[C@@H]2C[C@H](C)CN2C(=O)[C@H](CCc2ccc(C(F)(F)F)c(OC)c2)NC(=O)CN(C)C(=O)[C@H](Cc2ccc(C(F)(F)F)cc2)N2CC/C=C\C[C@@H](C2=O)N(C)C(=O)CN(C)C1=O [PP2071]	A (a compound having 10 or more and less than 20 is denoted as A)	A (a compound having 10 or more and less than 20 is denoted as A)				
1.1	CC[C@H](C)[C@@H]1NC(=O)[C@@H]2CCCCCCc3ccc(cc3)C[C@@H](C(=O)N(C)CC(=O)N[C@@H](CCc3ccc(C(F)(F)F)c(OC)c3)C(=O)N3C[C@H](OC(C)C)C[C@H]3C(=O)NC3(CC(C)(C)C3)C(=O)N(C)[C@@H](C3CCCC3)C(=O)N(C)[C@H](C(=O)N(C)C)CC(=O)N2C)N2CC/C=C\C[C@@H](C2=O)N(C)C(=O)CN(C)C1=O [PP3067]			B (a compound having 3 or more and less than 10 is denoted as B)	A (a compound having 10 or more and less than 20 is denoted as A)		
